Laboratory results: article PMC5775428, “Towards an experimental classification system for membrane active peptides” (Scientific Reports, 2018)
Read-outs that look alike come from different tables or passages of the source.

Tests used:
Bacillus cereus = conditions: Bacillus cereus; for Minimum inhibitory concentration, Average: average of triplicates
Protocol: (§1) Antimicrobial activity was tested against three categories of human and plant pathogenic microorganisms: Gram-positive (Bacillus subtilis, Bacillus cereus, Staphylococcus aureus), Gram-negative (Escherichia coli, Pseudomonas aeruginosa, Erwinia carotovora, Pseudomonas syringae pv. tabaci, Xanthomonas campestris pv. citri) and yeasts (Candida albicans, Cryptococcus neoformans), as previously reported. […] The full list of peptide MICs was published in an accompanying paper, and is available in the current publication as supplementary dataset (Supplementary dataset 01).
(§2) The determination of the minimum inhibitory concentration (MIC) of peptides was performed as described in “Encrypted Antimicrobial Peptides from Plant Proteins”[7]. Briefly, MICs were determined following protocols M7-A10 and M27-A3 from Clinical & Laboratory Standards Institute (CLSI) for bacteria and yeasts, respectively. Different concentrations of IAPs (0.5 to 256 μM) were tested against several microorganisms in a final volume of 100 µL. Three biological repetitions, with 2 technical replicates each, were performed for each test, on polystyrene flat-bottom 96 wells microplates. The minimum inhibitory concentration (MIC) was defined as the concentration at which no cells were detected when visualized by optical microscopy. Please refer to the literature[7] for further details of the microbiological assays.

Bacillus subtilis = conditions: Bacillus subtilis; for Minimum inhibitory concentration, Average: average of triplicates
Protocol: as §1, §2

Candida albicans = conditions: Candida albicans; for Minimum inhibitory concentration, Average: average of triplicates
Protocol: as §1, §2

Cryptococcus neoformans = conditions: Cryptococcus neoformans; for Minimum inhibitory concentration, Average: average of triplicates
Protocol: as §1, §2

Erwinia carotovora = conditions: Erwinia carotovora; for Minimum inhibitory concentration, Average: average of triplicates
Protocol: as §1, §2

Escherichia coli = conditions: Escherichia coli; for Minimum inhibitory concentration, Average: average of triplicates
Protocol: as §1, §2

Pseudomonas aeruginosa = conditions: Pseudomonas aeruginosa; for Minimum inhibitory concentration, Average: average of triplicates
Protocol: as §1, §2

[1] = test system: Pseudomonas syringae pv. tabaci; conditions: Pseudomonas syringae pv. tabaci; for Minimum inhibitory concentration, Average: average of triplicates
Protocol: as §1, §2

Staphylococcus aureus = conditions: Staphylococcus aureus; for Minimum inhibitory concentration, Average: average of triplicates
Protocol: as §1, §2

Xanthomonas campestris = conditions: for Minimum inhibitory concentration, Average: average of triplicates
Protocol: as §1, §2

[2] = CLSI M27-A3, 0.5 to 256 μM tested, triplicate 1, also published in ref 7

Sequence	Minimum inhibitory concentration (Bacillus cereus; CLSI M7-A10, triplicate 1) [µM]	Minimum inhibitory concentration, Average (Bacillus cereus) [µM]	Minimum inhibitory concentration (Bacillus cereus; triplicate 2) [µM]	Minimum inhibitory concentration (Bacillus cereus; triplicate 3) [µM]	Minimum inhibitory concentration (Bacillus subtilis; CLSI M7-A10, triplicate 1) [µM]	Minimum inhibitory concentration, Average (Bacillus subtilis) [µM]	Minimum inhibitory concentration (Bacillus subtilis; triplicate 2) [µM]	Minimum inhibitory concentration (Bacillus subtilis; triplicate 3) [µM]	Minimum inhibitory concentration (Candida albicans; [2]) [µM]	Minimum inhibitory concentration, Average (Candida albicans) [µM]	Minimum inhibitory concentration (Candida albicans; triplicate 2) [µM]	Minimum inhibitory concentration (Candida albicans; triplicate 3) [µM]	Minimum inhibitory concentration (Cryptococcus neoformans; CLSI M27-A3, triplicate 1) [µM]	Minimum inhibitory concentration, Average (Cryptococcus neoformans) [µM]	Minimum inhibitory concentration (Cryptococcus neoformans; triplicate 2) [µM]	Minimum inhibitory concentration (Cryptococcus neoformans; triplicate 3) [µM]	Minimum inhibitory concentration (Erwinia carotovora; CLSI M7-A10, triplicate 1) [µM]	Minimum inhibitory concentration, Average (Erwinia carotovora) [µM]	Minimum inhibitory concentration (Erwinia carotovora; triplicate 2) [µM]	Minimum inhibitory concentration (Erwinia carotovora; triplicate 3) [µM]	further results
GFKDLLKGAAKALVKTVLF [Asc-8, Ascaphin 8, reference compound]	4	4.0	4	4	1	1.0	1	1	8	8.0	8	8	4	4.0	4	4	2	3.3	4	4	Minimum inhibitory concentration (Escherichia coli; CLSI M7-A10, triplicate 1): 2 µM; Minimum inhibitory concentration, Average (Escherichia coli): 2.0 µM; Minimum inhibitory concentration (Escherichia coli; triplicate 2): 2 µM; Minimum inhibitory concentration (Escherichia coli; triplicate 3): 2 µM; Minimum inhibitory concentration (Pseudomonas aeruginosa; CLSI M7-A10, triplicate 1): 4 µM; Minimum inhibitory concentration, Average (Pseudomonas aeruginosa): 4.0 µM; Minimum inhibitory concentration (Pseudomonas aeruginosa; triplicate 2): 4 µM; Minimum inhibitory concentration (Pseudomonas aeruginosa; triplicate 3): 4 µM; Minimum inhibitory concentration ([1]; CLSI M7-A10, triplicate 1): 2 µM; Minimum inhibitory concentration, Average [1]: 2.0 µM; Minimum inhibitory concentration ([1]; triplicate 2): 2 µM; Minimum inhibitory concentration ([1]; triplicate 3): 2 µM; Minimum inhibitory concentration (Staphylococcus aureus; CLSI M7-A10, triplicate 1): 2 µM; Minimum inhibitory concentration, Average (Staphylococcus aureus): 2.0 µM; Minimum inhibitory concentration (Staphylococcus aureus; triplicate 2): 2 µM; Minimum inhibitory concentration (Staphylococcus aureus; triplicate 3): 2 µM; Minimum inhibitory concentration (Xanthomonas campestris; CLSI M7-A10, triplicate 1): 2 µM; Minimum inhibitory concentration, Average (Xanthomonas campestris): 2.0 µM; Minimum inhibitory concentration (Xanthomonas campestris; triplicate 2): 2 µM; Minimum inhibitory concentration (Xanthomonas campestris; triplicate 3): 2 µM
GFKLGRKLVKVFKWII [Gr01]	1	1.0	1	1	1	1.0	1	1	1	1.0	1	1	1	1.0	1	1	0.5	0.5	0.5	0.5	Minimum inhibitory concentration (Escherichia coli; CLSI M7-A10, triplicate 1): 0.5 µM; Minimum inhibitory concentration, Average (Escherichia coli): 0.5 µM; Minimum inhibitory concentration (Escherichia coli; triplicate 2): 0.5 µM; Minimum inhibitory concentration (Escherichia coli; triplicate 3): 0.5 µM; Minimum inhibitory concentration (Pseudomonas aeruginosa; CLSI M7-A10, triplicate 1): 2 µM; Minimum inhibitory concentration, Average (Pseudomonas aeruginosa): 3.3 µM; Minimum inhibitory concentration (Pseudomonas aeruginosa; triplicate 2): 4 µM; Minimum inhibitory concentration (Pseudomonas aeruginosa; triplicate 3): 4 µM; Minimum inhibitory concentration ([1]; CLSI M7-A10, triplicate 1): 1 µM; Minimum inhibitory concentration, Average [1]: 1.0 µM; Minimum inhibitory concentration ([1]; triplicate 2): 1 µM; Minimum inhibitory concentration ([1]; triplicate 3): 1 µM; Minimum inhibitory concentration (Staphylococcus aureus; CLSI M7-A10, triplicate 1): 0.5 µM; Minimum inhibitory concentration, Average (Staphylococcus aureus): 0.8 µM; Minimum inhibitory concentration (Staphylococcus aureus; triplicate 2): 1 µM; Minimum inhibitory concentration (Staphylococcus aureus; triplicate 3): 1 µM; Minimum inhibitory concentration (Xanthomonas campestris; CLSI M7-A10, triplicate 1): 1 µM; Minimum inhibitory concentration, Average (Xanthomonas campestris): 1.0 µM; Minimum inhibitory concentration (Xanthomonas campestris; triplicate 2): 1 µM; Minimum inhibitory concentration (Xanthomonas campestris; triplicate 3): 1 µM
GKILKYLLYLLRKYANLIIR [Tc02]	16	13.3	16	8	4	4.0	4	4	1	1.0	1	1	1	1.0	1	1	16	16.0	16	16	Minimum inhibitory concentration (Escherichia coli; CLSI M7-A10, triplicate 1): 8 µM; Minimum inhibitory concentration, Average (Escherichia coli): 10.7 µM; Minimum inhibitory concentration (Escherichia coli; triplicate 2): 8 µM; Minimum inhibitory concentration (Escherichia coli; triplicate 3): 16 µM; Minimum inhibitory concentration (Pseudomonas aeruginosa; CLSI M7-A10, triplicate 1): 16 µM; Minimum inhibitory concentration, Average (Pseudomonas aeruginosa): 16.0 µM; Minimum inhibitory concentration (Pseudomonas aeruginosa; triplicate 2): 16 µM; Minimum inhibitory concentration (Pseudomonas aeruginosa; triplicate 3): 16 µM; Minimum inhibitory concentration ([1]; CLSI M7-A10, triplicate 1): 4 µM; Minimum inhibitory concentration, Average [1]: 4.0 µM; Minimum inhibitory concentration ([1]; triplicate 2): 4 µM; Minimum inhibitory concentration ([1]; triplicate 3): 4 µM; Minimum inhibitory concentration (Staphylococcus aureus; CLSI M7-A10, triplicate 1): 8 µM; Minimum inhibitory concentration, Average (Staphylococcus aureus): 8.0 µM; Minimum inhibitory concentration (Staphylococcus aureus; triplicate 2): 8 µM; Minimum inhibitory concentration (Staphylococcus aureus; triplicate 3): 8 µM; Minimum inhibitory concentration (Xanthomonas campestris; CLSI M7-A10, triplicate 1): 16 µM; Minimum inhibitory concentration, Average (Xanthomonas campestris): 16.0 µM; Minimum inhibitory concentration (Xanthomonas campestris; triplicate 2): 16 µM; Minimum inhibitory concentration (Xanthomonas campestris; triplicate 3): 16 µM
